SMILES strings stand for the structures.

Melting point data for 36 molecules are collected here from patent US6949542B2, “Dihydro-benzo[b][1,4]diazepin-2-one derivatives” (Hoffman-La Roche Inc., priority 2002, dated 2005).

In turn, `CN(C)c1cc2c(cc1C(F)(F)F)NC(=O)CC(c1cccc(-c3ccccn3)c1)=N2` [Example 6, 7-Dimethylamino-4-(3-pyridin-2-yl-phenyl)-8-trifluoromethyl-1,3-dihydro-benzo[b][1,4]diazepin-2-one] showed a melting point of 201 °C. In turn, `O=C1CC(c2cccc(-c3cccnc3)c2)=Nc2ccc(F)cc2N1` [Example 7, 8-Fluoro-4-(3-pyridin-3-yl-phenyl)-1,3-dihydro-benzo[b][1,4]diazepin-2-one] yielded a melting point of 210 °C. In turn, `O=C1CC(c2cccc(-c3ccncc3)c2)=Nc2ccc(F)cc2N1` [Example 8, 8-Fluoro-4-(3-pyridin-4-yl-phenyl)-1,3-dihydro-benzo[b][1,4]diazepin-2-one] came in with a melting point of 190 to 192 °C. `Cc1ccc(-c2cccc(C3=Nc4cc(N(C)C)c(C(F)(F)F)cc4NC(=O)C3)c2)cn1` [Example 10, 7-Dimethylamino-4-[3-(6-methyl-pyridin-3-yl)-phenyl]-8-trifluoromethyl-1,3-dihydro-benzo[b][1,4]diazepin-2-one] yielded a melting point of 233 to 237 °C. `Cc1ccc(-c2cccc(C3=Nc4ccc(F)cc4NC(=O)C3)c2)cn1` [Example 11, 8-Fluoro-4-[3-(6-methyl-pyridin-3-yl)-phenyl]-1,3-dihydro-benzo[b][1,4]diazepin-2-one] came in with a melting point of 225 to 226 °C. The figure for `Cc1ccc(-c2cccc(C3=Nc4ccc(C(F)(F)F)cc4NC(=O)C3)c2)nn1` [Example 14, 4-[3-(6-Methyl-pyridazin-3-yl)-phenyl]-8-trifluoromethyl-1,3-dihydro-benzo[b][1,4]diazepin-2-one] is 233 °C; for `Cc1ccc(-c2cccc(C3=Nc4cc(N(C)C)c(C(F)(F)F)cc4NC(=O)C3)c2)nn1` [Example 15, 7-Dimethylamino-4-[3-(6-methyl-pyridazin-3-yl)-phenyl]-8-trifluoromethyl-1,3-dihydro-benzo[b][1,4]diazepin-2-one] it is 174 °C; for `Cc1ncccc1-c1cccc(C2=Nc3ccc(C(F)(F)F)cc3NC(=O)C2)c1` [Example 17, 4-[3-(2-Methyl-pyridin-3-yl)-phenyl]-8-trifluoromethyl-1,3-dihydro-benzo[b][1,4]diazepin-2-one] it is 219 to 220 °C. `Cc1ncccc1-c1cccc(C2=Nc3ccc(F)cc3NC(=O)C2)c1` [Example 18, 8-Fluoro-4-[3-(2-methyl-pyridin-3-yl)-phenyl]-1,3-dihydro-benzo[b][1,4]diazepin-2-one]: the melting point lay in the range of 219 to 220 °C. For `Cc1ncccc1-c1cccc(C2=Nc3ccc(-c4ccccc4F)cc3NC(=O)C2)c1` [Example 19, 8-(2-Fluoro-phenyl)-4-[3-(2-methyl-pyridin-3-yl)-phenyl]-1,3-dihydro-benzo[b][1,4]diazepin-2-one], the melting point lay within 192 to 194 °C. With `Cc1ccc(-c2cccc(C3=Nc4cc(F)c(Cl)cc4NC(=O)C3)c2)cn1` [Example 23, 8-Chloro-7-fluoro-4-[3-(6-methyl-pyridin-3-yl)-phenyl]-1,3-dihydro-benzo[b][1,4]diazepin-2-one], the melting point was in the range of 215 to 220 °C. Then `Cc1cc2c(cc1Cl)NC(=O)CC(c1cccc(-c3cccnc3)c1)=N2` [Example 26, 8-Chloro-7-methyl-4-(3-pyridin-3-yl-phenyl)-1,3-dihydro-benzo[b][1,4]diazepin-2-one], with 229 °C.

Molecule `O=C1CC(c2cccc(-c3cccnc3)c2)=Nc2ccc(-c3ccccc3F)cc2N1` [Example 29, 8-(2-Fluoro-phenyl)-4-(3-pyridin-3-yl-phenyl)-1,3-dihydro-benzo[b][1,4]diazepin-2-one] registered a melting point of 208 to 209 °C.

In turn, `Cc1ccc(-c2cccc(C3=Nc4ccc(Cl)cc4NC(=O)C3)c2)cn1` [Example 31, 8-Chloro-4-[3-(6-methyl-pyridin-3-yl)-phenyl]-1,3-dihydro-benzo[b][1,4]diazepin-2-one] yielded a melting point of 230 °C.

On to `Cc1ncccc1-c1cccc(C2=Nc3ccc(Cl)cc3NC(=O)C2)c1` [Example 32, 8-Chloro-4-[3-(2-methyl-pyridin-3-yl)-phenyl]-1,3-dihydro-benzo[b][1,4]diazepin-2-one], for which the melting point is 198 °C. `O=C1CC(c2cccc(-c3ccccn3)c2)=Nc2ccc(C(F)(F)F)cc2N1` [Example 33, 4-(3-Pyridin-2-yl-phenyl)-8-trifluoromethyl-1,3-dihydro-benzo[b][1,4]diazepin-2-one] displayed a melting point of 226 to 227 °C. Consider `O=C1CC(c2cccc(-c3cccnc3)c2)=Nc2ccccc2N1` [Example 34, 4-(3-Pyridin-3-yl-phenyl)-1,3-dihydro-benzo[b][1,4]diazepin-2-one], for which the melting point was 210 to 211 °C. Regarding `COc1cc2c(cc1C(F)(F)F)NC(=O)CC(c1cccc(-c3ccncc3)c1)=N2` [Example 35, 7-Methoxy-4-(3-pyridin-4-yl-phenyl)-8-trifluoromethyl-1,3-dihydro-benzo[b][1,4]diazepin-2-one], the melting point is 225 °C (dec.). The figure for `COc1ccc2c(c1)NC(=O)CC(c1cccc(-c3ccncc3)c1)=N2` [Example 38, 8-Methoxy-4-(3-pyridin-4-yl-phenyl)-1,3-dihydro-benzo[b][1,4]diazepin-2-one] is 193 to 196 °C; for `CN(C)c1cc2c(cc1-c1ccccc1F)NC(=O)CC(c1cccc(-c3ccncc3)c1)=N2` [Example 39, 7-Dimethylamino-8-(2-fluoro-phenyl)-4-(3-pyridin-4-yl-phenyl)-1,3-dihydro-benzo[b][1,4]diazepin-2-one] it is 236 to 237 °C; for `COc1ccc(-c2cccc(C3=Nc4cc(N(C)C)c(C(F)(F)F)cc4NC(=O)C3)c2)nn1` [Example 40, 7-Dimethylamino-4-[3-(6-methoxy-pyridazin-3-yl)-phenyl]-8-trifluoromethyl-1,3-dihydro-benzo[b][1,4]diazepin-2-one] it is 224 °C. The figure for `CCOc1cc2c(cc1C(F)(F)F)NC(=O)CC(c1cccc(-c3ccccn3)c1)=N2` [Example 43, 7-Ethoxy-4-(3-pyridin-2-yl-phenyl)-8-trifluoromethyl-1,3-dihydro-benzo[b][1,4]diazepin-2-one] is 229 °C; for `O=C1CC(c2cccc(-c3ccccn3)c2)=Nc2cc(OCC(F)(F)F)c(C(F)(F)F)cc2N1` [Example 44, 4-(3-Pyridin-2-yl-phenyl)-7-(2,2,2-trifluoro-ethoxy)-8-trifluoromethyl-1,3-dihydro-benzo[b][1,4]diazepin-2-one] it is 214 °C. Then `Cc1cc2c(cc1Cl)NC(=O)CC(c1cccc(-c3ccccn3)c1)=N2` [Example 45, 8-Chloro-7-methyl-4-(3-pyridin-2-yl-phenyl)-1,3-dihydro-benzo[b][1,4]diazepin-2-one], with 222 °C (dec.); and `Cc1cc2c(cc1C(F)(F)F)NC(=O)CC(c1cccc(-c3ccccn3)c1)=N2` [Example 46, 7-Methyl-4-(3-pyridin-2-yl-phenyl)-8-trifluoromethyl-1,3-dihydro-benzo[b][1,4]diazepin-2-one], with 251 to 253 °C; and `Cc1cc2c(cc1C(F)(F)F)NC(=O)CC(c1cccc(-c3ccnnc3)c1)=N2` [Example 49, 7-Methyl-4-(3-pyridazin-4-yl-phenyl)-8-trifluoromethyl-1,3-dihydro-benzo[b][1,4]diazepin-2-one], with 223 °C.

As for `COc1ccc(-c2cccc(C3=Nc4ccc(C(F)(F)F)cc4NC(=O)C3)c2)cn1` [Example 50, 4-[3-(6-Methoxy-pyridin-3-yl)-phenyl]-8-trifluoromethyl-1,3-dihydro-benzo[b][1,4]diazepin-2-one], the melting point lay within 210 to 215 °C. `COc1ccc(-c2cccc(C3=Nc4ccc(Cl)cc4NC(=O)C3)c2)cn1` [Example 51, 8-Chloro-4-[3-(6-methoxy-pyridin-3-yl)-phenyl]-1,3-dihydro-benzo[b][1,4]diazepin-2-one]: the melting point was 200 to 205 °C. For `O=C1CC(c2cccc(-c3ccccn3)c2)=Nc2cc(F)c(Cl)cc2N1` [Example 52, 8-Chloro-7-fluoro-4-(3-pyridin-2-yl-phenyl)-1,3-dihydro-benzo[b][1,4]diazepin-2-one], the melting point was 197 to 198 °C. As to `COc1ccc2c(c1)N=C(c1cccc(-c3cccnc3)c1)CC(=O)N2` [Example 55, 7-Methoxy-4-(3-pyridin-3-yl-phenyl)-1,3-dihydro-benzo[b][1,4]diazepin-2-one], the melting point was 219 °C (dec.). Then `CCOc1ccc2c(c1)N=C(c1cccc(-c3ccnc(C)c3)c1)CC(=O)N2` [Example 59, 7-Ethoxy-4-[3-(2-methyl-pyridin-4-yl)-phenyl]-1,3-dihydro-benzo[b][1,4]diazepin-2-one], with 163 °C; and `CCOc1ccc2c(c1)N=C(c1cccc(-c3ccc(C)nc3)c1)CC(=O)N2` [Example 60, 7-Ethoxy-4-[3-(6-methyl-pyridin-3-yl)-phenyl]-1,3-dihydro-benzo[b][1,4]diazepin-2-one], with 173 °C; and `CN(c1cc2c(cc1C(F)(F)F)NC(=O)CC(c1cccc(-c3cccnc3)c1)=N2)C1CC1` [Example 62, 7-(Cyclopropyl-methyl-amino)-4-(3-pyridin-3-yl-phenyl)-8-trifluoromethyl-1,3-dihydro-benzo[b][1,4]diazepin-2-one], with 196 to 198 °C. The figure for `Cc1cc2c(cc1C(F)(F)F)N=C(c1cccc(-c3ccncc3)c1)CC(=O)N2` [Example 64, 8-Methyl-4-(3-pyridin-4-yl-phenyl)-7-trifluoromethyl-1,3-dihydro-benzo[b][1,4]diazepin-2-one] is 217 °C.

Take `Cc1cc2c(cc1Cl)N=C(c1cccc(-c3ccncc3)c1)CC(=O)N2` [Example 66, 7-Chloro-8-methyl-4-(3-pyridin-4-yl-phenyl)-1,3-dihydro-benzo[b][1,4]diazepin-2-one]: the melting point is 236 °C. Molecule `Cc1cc2c(cc1C)NC(=O)CC(c1cccc(-c3ccncc3)c1)=N2` [Example 69, 7,8-Dimethyl-4-(3-pyridin-4-yl-phenyl)-1,3-dihydro-benzo[b][1,4]diazepin-2-one] showed a melting point of 231 °C.
